In patent publication US20230270767A1, “INHIBITORS OF ENPP1 AND METHODS OF USING SAME” (The Regents of the University of California, priority 2017, published 2023):

Tests used:
[1] = system: C3H mice; assay: Post injury cardiac calcification after cardiac cryo injury in mice (gross inspection, micro CT, biochemical calcium measurement); format: in vivo, mouse; details: for post injury cardiac calcification on gross inspection: ENPP1 inhibitor by continuous infusion (mini pump) for 2 days prior to cardiac injury and 5 days after injury, compared to vehicle; for reduction in calcium deposits in the injured hearts (biochemical measurements): ENPP1 inhibitor by continuous infusion for 2 days prior to and 5 days after injury, p<0.05; for decrease in calcific deposits / calcification on micro CT with 3D reconstruction: ENPP1 inhibitor by continuous infusion for 2 days prior to cardiac injury and 5 days after injury, compared to vehicle treated animals
Excerpt: We next investigated whether cardiac fibroblasts can adopt osteoblast cell like fates in vivo and directly contribute to ectopic calcification of the myocardium. To address this question, we created three murine models of myocardial calcification and determined with lineage trace techniques whether genetically labeled cardiac fibroblasts adopted an osteoblast phenotype and contributed to heart calcification in vivo. Cardiac injury or aging in certain strains of mice (e.g. C3H/HeJ, BALB/cByJ, DBA/2J) can lead to the development of calcification within the myocardium (Glass et al., 2013);(Ivandic et al., 1996);(Korff et al., 2006). We used several different methods to induce myocardial injury in C3H strain of mice. First, we administered high dose systemic steroids daily for 10 days which is known to induce myocyte necrosis (Sparks et al., 1955). […] Finally, ischemic injury of the myocardium by ligating the left anterior descending (LAD) coronary artery, (Korff et al., 2006) led to patchy calcification of the injury region within 4 weeks of ischemic insult (Cell Stem Cell (2017) 20:1-15, the FIGURE). Consistent with the known association of fibrosis and calcification, we observed calcification only in regions where there was fibrosis (identified by Masson trichrome staining) (Cell Stem Cell (2017) 20:1-15, the FIGURE).
Calcification of the extracellular matrix is critically regulated by the balance of extracellular phosphate (Pi) and pyrophosphate (PPi) (Terkeltaub, 2001). Pyrophosphate is generated at the cell surface by the enzyme ectonucleotide pyrophosphatase/phosphodiesterase-1 (ENPP1) that breaks down ATP to AMP and PPi. Pyrophosphate is well recognized to inhibit calcium hydroxyapatite mineralization (Rutsch et al., 2011) in non-skeletal tissues, but in bone and teeth, pyrophosphate promotes mineralization by serving as a substrate for tissue non specific alkaline phosphatase that hydrolyzes pyrophosphate to generate inorganic phosphate (Terkeltaub, 2006). ENPP1 is expressed in osteoblasts, thought to regulate osteoblast maturation and bone mineralization and animals deficient in ENPP1 have decreased mineralization of long bones (Johnson et al., 2003). Considering the importance of ENPP1 in mineralization of the skeleton, we examined whether ENPP1, a gene identified by us to be differentially expressed (by RNA-seq) between calcific and non-calcified cardiac regions was contributing to ectopic cardiac calcification. We first confirmed our observation and subjected C3H mice and B6 mice to cryo-induced cardiac injury. […] Immunostaining for ENPP1 confirmed that ENPP1 was expressed in uninjured B6 hearts (Cell Stem Cell (2017) 20:1-15, the FIGURE) and was more abundant following injury (Cell Stem Cell (2017) 20:1-15, the FIGURE). […] We next determined whether cardiac fibroblasts in the injury region were a source of increased ENPP1 expression. We subjected Col1a2CreERT:R26R^tdTomato mice hearts to cardiac injury and observed abundant expression of ENPP1 by tdTomato labeled cardiac fibroblasts in calcified regions. (Cell Stem Cell (2017) 20:1-15, the FIGURE). Extracellular pyrophosphate generated by ENPP1 can induce mineralization of tissues by precipitating out as calcium pyrophosphate dihydrate (CPPD) or serving as a substrate for phosphate generation and formation of calcium hydroxyapatite. To distinguish between these two, we performed Raman spectroscopy (Chen et al., 2009) and observed that the myocardial calcific deposits comprised calcium hydroxyapatite and not pyrophosphate dihydrate (Cell Stem Cell (2017) 20:1-15, the FIGURE). PPi generated by ENPP1 can be hydrolyzed by tissue non-specific alkaline phosphatase (TNAP) to Pi. The heart is known to express TNAP and we confirmed that both injured and uninjured cardiac tissue is rich in tissue non-specific alkaline phosphatase (TNAP) (Cell Stem Cell (2017) 20:1-15, the FIGURE). […]

[2] = system: C3H animals; assay: Echocardiography of cardiac function after cardiac cryo-injury; format: in vivo, mouse
Excerpt: We next investigated the physiologic significance of inhibiting cardiac calcification on cardiac function. In a subset of C3H animals, we performed echocardiography to determine cardiac function prior to cardiac cryo-injury and following administration of etidronate. […] Etidronate had no effect on sham injured hearts (Cell Stem Cell (2017) 20:1-15, the FIGURE).

[3] = post injury, compared to vehicle treated control animals

Row | SMILES | post injury cardiac calcification on gross inspection [1] | reduction in calcium deposits in the injured hearts (biochemical measurements) [1] | decrease in calcific deposits / calcification on micro CT with 3D reconstruction [1] | post injury cardiac function ([2]; C3H animals, cardiac cryo-injury, echocardiography) | Ejection fraction ([2]; following injury) | fractional shortening ([2]; following injury) | systolic function ([2]; injured animals, echocardiography) | left ventricular end diastolic diameter (LVEDD) [2, 3] | left ventricular end systolic diameter (LVESD) [2, 3] | effect on sham injured hearts ([2]; sham injured hearts) | amount of deposited calcium ([1]; administered after the development of calcification, data not shown) | calcification on gross inspection or on CT scans ([1]; administered one day prior to cardiac cryo injury and then daily till hearts were harvested) | calcific phenotype ([1]; administered one day prior to cardiac cryo injury and then daily till hearts were harvested, vs vehicle injected controls)
1 | CCN(CC)c1ncnc2c1ncn2[C@@H]1O[C@H](COP(=O)([O-])OP(=O)([O-])C(Br)(Br)P(=O)([O-])O)C(O)C1O.[Na+].[Na+].[Na+] (stereo partly shown) [ARL67156] | significantly inhibited calcification | 79% | 85% | – | – | – | – | – | – | – | – | – | –
2 | O=C(/C=C/c1ccc(O)c(O)c1)O[C@H](Cc1ccc(O)c(O)c1)C(=O)O [SYL-001, rosmarinic acid] | decreased post injury cardiac calcification | 35% | 42% | – | – | – | – | – | – | – | – | – | –
3 | CC(O)(P(=O)(O)O)P(=O)(O)O [etidronate, etidronic acid] | – | – | – | significant preservation of post injury cardiac function | substantially better | substantially better | better systolic function | significantly decreased | significantly decreased | no effect | did not reverse or decrease the amount of deposited calcium | no calcification was seen | completely rescued the calcific phenotype
